# Counter-ions that a name gives are not always drawn. Like-named read-outs stand apart in the source and are kept apart here.
# System: hepatocytes
# Assay: RNA-seq of hepatocytes treated with Phase III failure compounds
# Conditions: for significant changes in gene expression: RNA-seq of Table 36, FPKM≥0.5, log 2(fold-change)≥1, q-value≤0.05; for significant modulation of expression of any of the genes analyzed: p≤0.05; for significant modulation of expression of disease genes: q≤0.05, genes in the value or listed in the block
# Description: RNA-seq was performed to determine the effects of the compounds on hepatocytes.
# Significance was determined by the criteria of FPKM≥0.5, a log 2(fold-change)≥1, and a […].
# [1] = RNA-seq, Phase III failure compounds, hepatocytes, significance: FPKM≥0.5, log 2(fold-change)≥1, q-value≥0.05 (so in the source)
smiles,measurement,setting,value
"CCCCCCCCCCCCCCCCOCCCOP(=O)(O)CO[C@H](CO)Cn1ccc(N)nc1=O [CMX001 (Brincidofovir), Brincidofovir]",significant changes in gene expression,,not observed to cause any significant changes in gene expression
same,significant modulation of expression of any of the genes analyzed,"RNA-seq, hepatocytes",not observed to significantly modulate expression
same,effect on disease gene expression,"RNA-seq, hepatocytes",no effect on any disease gene
"Cc1ccc2c(c1)c1c(n2CCc2ccc(C)nc2)CCN(C)C1 [Latrepirdine (dihydrochloride) (64), Latrepirdine]",significant changes in gene expression,,not observed to cause any significant changes in gene expression
COc1nc(N)nc2c1ncn2[C@@H]1O[C@H](COP(=O)(N[C@@H](C)C(=O)OCC(C)(C)C)Oc2cccc3ccccc23)[C@@H](O)[C@@]1(C)O (stereo partly drawn) [bms-986094],Number (#) of genes having significantly changed expression,,2079
CCC(CC)CC1(C(=O)Nc2ccccc2SC(=O)C(C)C)CCCCC1 [Dalcetrapib],Number (#) of genes having significantly changed expression,[1],43
same,significant modulation of expression of disease genes,"RNA-seq, hepatocytes",significantly (q≤0.05) modulate expression of CYP3A4 and GOSH
same,effect on disease gene expression,"RNA-seq, hepatocytes",no effect on any disease gene
"O=C(N[C@H]1CN2CCC1CC2)c1cc2cccc(Cl)c2s1 [EVP-6124 (hydrochloride) (encenicline), encenicline]",Number (#) of genes having significantly changed expression,[1],141
same,significant modulation of expression of disease genes,"RNA-seq, hepatocytes",significantly (q≤0.05) modulate expression
same,"B2M expression, RNA-seq result","gene B2M, hepatocytes",0.16
same,"B9D2 expression, RNA-seq result","gene B9D2, hepatocytes",−0.55
same,"BAAT expression, RNA-seq result","gene BAAT, hepatocytes",0.61
same,"BBOX1 expression, RNA-seq result","gene BBOX1, hepatocytes",−0.14
same,"BBS10 expression, RNA-seq result","gene BBS10, hepatocytes",−0.33
same,"BCHE expression, RNA-seq result","gene BCHE, hepatocytes",−0.41
same,"BCKDHB expression, RNA-seq result","gene BCKDHB, hepatocytes",−0.31
same,"BCKDK expression, RNA-seq result","gene BCKDK, hepatocytes",−0.23
same,"BCO1 expression, RNA-seq result","gene BCO1, hepatocytes",0.24
same,"BCR expression, RNA-seq result","gene BCR, hepatocytes",−0.06
same,"BLNK expression, RNA-seq result","gene BLNK, hepatocytes",0.39
same,"BLOC1S3 expression, RNA-seq result","gene BLOC1S3, hepatocytes",0.46
same,"BMPR1A expression, RNA-seq result","gene BMPR1A, hepatocytes",0.09
same,"BRAF expression, RNA-seq result","gene BRAF, hepatocytes",0.04
same,"BSCL2 expression, RNA-seq result","gene BSCL2, hepatocytes",−0.54
same,"BTD expression, RNA-seq result","gene BTD, hepatocytes",−0.08
same,"C4A expression, RNA-seq result","gene C4A, hepatocytes",0.24
same,"C9 expression, RNA-seq result","gene C9, hepatocytes",−0.11
same,"C10orf10 expression, RNA-seq result","gene C10orf10, hepatocytes",−0.31
same,"C10orf11 expression, RNA-seq result","gene C10orf11, hepatocytes",0.1
same,"C15orf41 expression, RNA-seq result","gene C15orf41, hepatocytes",−0.2
same,"CA2 expression, RNA-seq result","gene CA2, hepatocytes",0.6
same,"CA5A expression, RNA-seq result","gene CA5A, hepatocytes",0.1
same,"CA12 expression, RNA-seq result","gene CA12, hepatocytes",0.58
same,"CAV1 expression, RNA-seq result","gene CAV1, hepatocytes",−0.81
same,"CCND1 expression, RNA-seq result","gene CCND1, hepatocytes",−0.9
same,"CD46 expression, RNA-seq result","gene CD46, hepatocytes",0.24
same,"CD81 expression, RNA-seq result","gene CD81, hepatocytes",0.27
same,"CD320 expression, RNA-seq result","gene CD320, hepatocytes",−0.04
same,"CDAN1 expression, RNA-seq result","gene CDAN1, hepatocytes",−0.04
same,"CDH1 expression, RNA-seq result","gene CDH1, hepatocytes",−0.12
same,"CEP19 expression, RNA-seq result","gene CEP19, hepatocytes",−0.06
same,"CEP83 expression, RNA-seq result","gene CEP83, hepatocytes",−0.3
same,"CEP164 expression, RNA-seq result","gene CEP164, hepatocytes",−0.12
same,"CEP290 expression, RNA-seq result","gene CEP290, hepatocytes",−0.26
same,"CFB expression, RNA-seq result","gene CFB, hepatocytes",0.1
same,"CFHR2 expression, RNA-seq result","gene CFHR2, hepatocytes",−0.08
same,"CHRM3 expression, RNA-seq result","gene CHRM3, hepatocytes",0.28
same,"CIDEC expression, RNA-seq result","gene CIDEC, hepatocytes",−0.13
same,"CLDN1 expression, RNA-seq result","gene CLDN1, hepatocytes",−0.46
same,"COG1 expression, RNA-seq result","gene COG1, hepatocytes",−0.19
CO[C@H]1C[C@@H]2CC[C@@H](C)[C@@](O)(O2)C(=O)C(=O)N2CCCC[C@H]2C(=O)O[C@H]([C@H](C)C[C@@H]2CC[C@@H](OC(=O)C(C)(CO)CO)[C@H](OC)C2)CC(=O)[C@H](C)/C=C(\C)[C@@H](O)[C@@H](OC)C(=O)[C@H](C)C[C@H](C)/C=C/C=C/C=C/1C [Temsirolimus],Number (#) of genes having significantly changed expression,[1],34
same,significant modulation of expression of any of the genes analyzed,"RNA-seq, hepatocytes",not observed to significantly modulate expression
same,effect on disease gene expression,"RNA-seq, hepatocytes",no effect on any disease gene

# — patent publication US20210254056A1, “IDENTIFICATION AND TARGETED MODULATION OF GENE SIGNALING NETWORKS” (CAMP4 THERAPEUTICS CORPORATION, priority 2017, published 2021)
